How the values were obtained:
Assay in all cases: Kinase panel
Format in all cases: biochemical
Details in all cases: read-out: % Residual Activity
[1] = molecular target: T1, Lyn(m) (Mus musculus, UniProt P25911)
T1 construct: purchased Eurofins (KinaseProfiler)
How it was run: (§1)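 Steps: profile rilpivirine against a broad kinase panel; determine IC50 by radioactive assay using ATP at the kinase-specific Km; convert IC50 to Ki by the Cheng–Prusoff relationship.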

[2] = molecular target: T2, STK32B(h) (Homo sapiens, UniProt Q9NY57)
T2 construct: purchased Eurofins (KinaseProfiler)
How it was run: as §1

[3] = molecular target: T3, PKBβ(h) (Homo sapiens, UniProt P31751)
T3 construct: purchased Eurofins (KinaseProfiler)
How it was run: as §1

[4] = molecular target: T4, SIK(h) (Homo sapiens, UniProt P57059)
T4 construct: purchased Eurofins (KinaseProfiler)
How it was run: as §1

[5] = molecular target: T5, DYRK3(h) (Homo sapiens, UniProt O43781)
T5 construct: purchased Eurofins (KinaseProfiler)
How it was run: as §1

[6] = molecular target: T6, IKKα(h) (Homo sapiens, UniProt O15111)
T6 construct: purchased Eurofins (KinaseProfiler)
How it was run: as §1

[7] = molecular target: T7, DYRK2(h) (Homo sapiens, UniProt Q92630)
T7 construct: purchased Eurofins (KinaseProfiler)
How it was run: as §1

[8] = molecular target: T8, TLK2(h) (Homo sapiens, UniProt Q86UE8)
T8 construct: purchased Eurofins (KinaseProfiler)
How it was run: as §1

[9] = molecular target: T9, MKK3(h) (Homo sapiens, UniProt P46734)
T9 construct: purchased Eurofins (KinaseProfiler)
How it was run: as §1

[10] = molecular target: T10, mTOR/FKBP12(h) (Homo sapiens, UniProt P42345)
T10 construct: purchased Eurofins (KinaseProfiler)
How it was run: as §1

[11] = molecular target: T11, CDK2/cyclinA(h) (Homo sapiens, UniProt P24941)
T11 construct: purchased Eurofins (KinaseProfiler)
How it was run: as §1

[12] = molecular target: T12, Txk(h) (Homo sapiens, UniProt P42681)
T12 construct: purchased Eurofins (KinaseProfiler)
How it was run: as §1

[13] = molecular target: T13, TSSK1(h) (Homo sapiens, UniProt Q9BXA7)
T13 construct: purchased Eurofins (KinaseProfiler)
How it was run: as §1

[14] = molecular target: T14, Fms(h) (Homo sapiens, UniProt P07333)
T14 construct: purchased Eurofins (KinaseProfiler)
How it was run: as §1

[15] = molecular target: T15, Flt1(h) (Homo sapiens, UniProt P17948)
T15 construct: purchased Eurofins (KinaseProfiler)
How it was run: as §1

[16] = molecular target: T16, BTK(R28H)(h) (Homo sapiens, UniProt Q06187, R28H)
T16 construct: purchased Eurofins (KinaseProfiler)
How it was run: as §1

[17] = molecular target: T17, EphB3(h) (Homo sapiens, UniProt P54753)
T17 construct: purchased Eurofins (KinaseProfiler)
How it was run: as §1

[18] = molecular target: T18, Abl(T315I)(h) (Homo sapiens, UniProt P00519, T315I)
T18 construct: purchased Eurofins (KinaseProfiler)
How it was run: as §1

[19] = molecular target: T19, FGFR1(h) (Homo sapiens, UniProt P11362)
T19 construct: purchased Eurofins (KinaseProfiler)
How it was run: as §1

[20] = molecular target: T20, CaMKIIβ(h) (Homo sapiens, UniProt Q13554)
T20 construct: purchased Eurofins (KinaseProfiler)
How it was run: as §1

[21] = molecular target: T21, DNA-PK(h) (Homo sapiens, UniProt P78527)
T21 construct: purchased Eurofins (KinaseProfiler)
How it was run: as §1

[22] = molecular target: T22, FAK(h) (Homo sapiens, UniProt Q05397)
T22 construct: purchased Eurofins (KinaseProfiler)
How it was run: as §1

[23] = molecular target: T23, Fyn(h) (Homo sapiens, UniProt P06241)
T23 construct: purchased Eurofins (KinaseProfiler)
How it was run: as §1

[24] = molecular target: T24, SRMS(h) (Homo sapiens, UniProt Q9H3Y6)
T24 construct: purchased Eurofins (KinaseProfiler)
How it was run: as §1

[25] = molecular target: T25, CHK2(I157T)(h) (Homo sapiens, UniProt O96017, I157T)
T25 construct: purchased Eurofins (KinaseProfiler)
How it was run: as §1

[26] = molecular target: T26, Snk(h) (Homo sapiens, UniProt Q9NYY3)
T26 construct: purchased Eurofins (KinaseProfiler)
How it was run: as §1

[27] = molecular target: T27, CaMKIγ(h) (Homo sapiens, UniProt Q96NX5)
T27 construct: purchased Eurofins (KinaseProfiler)
How it was run: as §1

[28] = molecular target: T28, Lck(h) activated (Homo sapiens, UniProt P06239)
T28 construct: purchased Eurofins (KinaseProfiler)
How it was run: as §1

[29] = molecular target: T29, MAPKAP-K3(h) (Homo sapiens, UniProt Q16644)
T29 construct: purchased Eurofins (KinaseProfiler)
How it was run: as §1

[30] = molecular target: T30, CDK5/p25(h) (Homo sapiens, UniProt Q00535)
T30 construct: purchased Eurofins (KinaseProfiler)
How it was run: as §1

[31] = molecular target: T31, cKit(D816H)(h) (Homo sapiens, UniProt P10721, D816H)
T31 construct: purchased Eurofins (KinaseProfiler)
How it was run: as §1

[32] = molecular target: T32, EphA4(h) (Homo sapiens, UniProt P54764)
T32 construct: purchased Eurofins (KinaseProfiler)
How it was run: as §1

[33] = molecular target: T33, CK1γ1(h) (Homo sapiens, UniProt Q9HCP0)
T33 construct: purchased Eurofins (KinaseProfiler)
How it was run: as §1

[34] = molecular target: T34, ICK(h) (Homo sapiens, UniProt Q9UPZ9)
T34 construct: purchased Eurofins (KinaseProfiler)
How it was run: as §1

[35] = molecular target: T35, STK25(h) (Homo sapiens, UniProt O00506)
T35 construct: purchased Eurofins (KinaseProfiler)
How it was run: as §1

[36] = molecular target: T36, MAP4K5(h) (Homo sapiens, UniProt Q9Y4K4)
T36 construct: purchased Eurofins (KinaseProfiler)
How it was run: as §1

[37] = molecular target: T37, NEK1(h) (Homo sapiens, UniProt Q96PY6)
T37 construct: purchased Eurofins (KinaseProfiler)
How it was run: as §1

[38] = molecular target: T38, HIPK4(h) (Homo sapiens, UniProt Q8NE63)
T38 construct: purchased Eurofins (KinaseProfiler)
How it was run: as §1

[39] = molecular target: T39, MAPK2(h) (Homo sapiens, UniProt P28482)
T39 construct: purchased Eurofins (KinaseProfiler)
How it was run: as §1

T12 sequence (P42681 whole entry): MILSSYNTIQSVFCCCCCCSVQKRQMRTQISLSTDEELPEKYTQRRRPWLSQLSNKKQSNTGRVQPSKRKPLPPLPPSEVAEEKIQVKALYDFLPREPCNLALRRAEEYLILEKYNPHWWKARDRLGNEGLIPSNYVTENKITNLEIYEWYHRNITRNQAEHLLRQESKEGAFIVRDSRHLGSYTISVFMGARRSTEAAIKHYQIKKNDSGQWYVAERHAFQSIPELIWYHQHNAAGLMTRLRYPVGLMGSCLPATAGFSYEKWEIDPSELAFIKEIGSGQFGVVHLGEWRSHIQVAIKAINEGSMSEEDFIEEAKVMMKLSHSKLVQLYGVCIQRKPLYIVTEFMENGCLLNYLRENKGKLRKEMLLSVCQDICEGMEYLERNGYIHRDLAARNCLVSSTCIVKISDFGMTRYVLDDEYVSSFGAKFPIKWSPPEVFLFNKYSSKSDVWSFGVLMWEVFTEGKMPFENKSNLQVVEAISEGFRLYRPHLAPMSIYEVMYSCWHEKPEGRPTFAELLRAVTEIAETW
T22 sequence (Q05397 whole entry): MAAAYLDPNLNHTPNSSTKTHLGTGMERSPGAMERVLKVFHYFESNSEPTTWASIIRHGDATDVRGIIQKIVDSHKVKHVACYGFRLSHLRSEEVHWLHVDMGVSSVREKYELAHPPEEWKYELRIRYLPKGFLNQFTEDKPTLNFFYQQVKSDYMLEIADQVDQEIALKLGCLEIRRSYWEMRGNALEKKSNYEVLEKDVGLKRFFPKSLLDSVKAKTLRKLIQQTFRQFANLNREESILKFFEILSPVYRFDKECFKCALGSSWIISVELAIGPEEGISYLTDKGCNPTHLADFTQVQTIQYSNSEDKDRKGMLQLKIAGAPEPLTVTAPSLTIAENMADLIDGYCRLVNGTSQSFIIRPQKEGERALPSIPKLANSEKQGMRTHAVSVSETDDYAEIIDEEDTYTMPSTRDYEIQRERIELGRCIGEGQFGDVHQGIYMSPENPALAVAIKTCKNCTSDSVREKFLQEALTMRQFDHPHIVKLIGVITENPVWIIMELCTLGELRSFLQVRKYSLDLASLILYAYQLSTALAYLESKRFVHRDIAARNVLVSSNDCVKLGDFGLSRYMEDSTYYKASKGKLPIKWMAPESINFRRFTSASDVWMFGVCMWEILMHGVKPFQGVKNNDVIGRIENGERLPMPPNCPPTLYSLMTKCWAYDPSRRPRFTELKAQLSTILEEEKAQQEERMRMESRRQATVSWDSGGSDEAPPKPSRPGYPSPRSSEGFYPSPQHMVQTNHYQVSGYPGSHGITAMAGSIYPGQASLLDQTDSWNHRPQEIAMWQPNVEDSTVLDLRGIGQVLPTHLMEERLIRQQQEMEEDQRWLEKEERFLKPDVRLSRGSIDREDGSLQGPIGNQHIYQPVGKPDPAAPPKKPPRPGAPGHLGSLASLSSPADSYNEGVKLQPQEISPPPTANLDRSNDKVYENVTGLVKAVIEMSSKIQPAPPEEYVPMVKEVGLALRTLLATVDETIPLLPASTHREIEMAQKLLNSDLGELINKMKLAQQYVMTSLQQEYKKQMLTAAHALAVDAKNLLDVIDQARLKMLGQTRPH
T29 sequence (Q16644 whole entry): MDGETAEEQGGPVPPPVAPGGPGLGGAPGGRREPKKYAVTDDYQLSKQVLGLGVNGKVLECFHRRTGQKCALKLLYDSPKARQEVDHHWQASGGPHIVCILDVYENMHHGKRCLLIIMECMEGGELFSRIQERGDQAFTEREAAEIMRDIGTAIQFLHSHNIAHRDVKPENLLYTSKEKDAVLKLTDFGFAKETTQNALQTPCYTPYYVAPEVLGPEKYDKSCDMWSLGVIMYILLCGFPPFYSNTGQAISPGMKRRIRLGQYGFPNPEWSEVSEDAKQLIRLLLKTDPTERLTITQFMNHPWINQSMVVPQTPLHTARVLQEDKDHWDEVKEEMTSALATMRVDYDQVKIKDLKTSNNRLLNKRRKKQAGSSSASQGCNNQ
T31 sequence (P10721 26-976 D816H): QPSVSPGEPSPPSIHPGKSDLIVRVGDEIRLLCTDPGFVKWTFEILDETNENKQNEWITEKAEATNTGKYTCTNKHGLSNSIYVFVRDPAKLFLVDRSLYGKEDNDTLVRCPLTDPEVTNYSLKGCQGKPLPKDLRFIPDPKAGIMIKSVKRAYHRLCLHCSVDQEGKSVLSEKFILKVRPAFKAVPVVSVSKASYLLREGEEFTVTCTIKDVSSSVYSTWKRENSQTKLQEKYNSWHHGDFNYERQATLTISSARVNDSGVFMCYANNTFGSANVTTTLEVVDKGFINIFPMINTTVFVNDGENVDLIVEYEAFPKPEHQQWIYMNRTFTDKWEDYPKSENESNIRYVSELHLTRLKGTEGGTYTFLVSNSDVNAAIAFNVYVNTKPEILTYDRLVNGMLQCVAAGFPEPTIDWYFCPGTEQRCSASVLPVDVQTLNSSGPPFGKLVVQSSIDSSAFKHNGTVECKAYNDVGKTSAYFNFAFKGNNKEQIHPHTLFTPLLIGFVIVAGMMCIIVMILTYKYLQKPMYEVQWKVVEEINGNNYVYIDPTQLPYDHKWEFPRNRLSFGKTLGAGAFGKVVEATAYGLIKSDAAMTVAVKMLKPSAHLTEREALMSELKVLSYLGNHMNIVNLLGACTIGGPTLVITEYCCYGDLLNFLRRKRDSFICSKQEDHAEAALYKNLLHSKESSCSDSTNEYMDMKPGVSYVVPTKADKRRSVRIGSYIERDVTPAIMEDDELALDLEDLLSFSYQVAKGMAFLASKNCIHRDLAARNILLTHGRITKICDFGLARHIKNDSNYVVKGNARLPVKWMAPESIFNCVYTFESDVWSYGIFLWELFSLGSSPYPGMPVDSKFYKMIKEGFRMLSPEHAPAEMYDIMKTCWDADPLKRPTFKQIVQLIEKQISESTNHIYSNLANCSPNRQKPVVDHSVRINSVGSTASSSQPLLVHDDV
T5 sequence (O43781 whole entry): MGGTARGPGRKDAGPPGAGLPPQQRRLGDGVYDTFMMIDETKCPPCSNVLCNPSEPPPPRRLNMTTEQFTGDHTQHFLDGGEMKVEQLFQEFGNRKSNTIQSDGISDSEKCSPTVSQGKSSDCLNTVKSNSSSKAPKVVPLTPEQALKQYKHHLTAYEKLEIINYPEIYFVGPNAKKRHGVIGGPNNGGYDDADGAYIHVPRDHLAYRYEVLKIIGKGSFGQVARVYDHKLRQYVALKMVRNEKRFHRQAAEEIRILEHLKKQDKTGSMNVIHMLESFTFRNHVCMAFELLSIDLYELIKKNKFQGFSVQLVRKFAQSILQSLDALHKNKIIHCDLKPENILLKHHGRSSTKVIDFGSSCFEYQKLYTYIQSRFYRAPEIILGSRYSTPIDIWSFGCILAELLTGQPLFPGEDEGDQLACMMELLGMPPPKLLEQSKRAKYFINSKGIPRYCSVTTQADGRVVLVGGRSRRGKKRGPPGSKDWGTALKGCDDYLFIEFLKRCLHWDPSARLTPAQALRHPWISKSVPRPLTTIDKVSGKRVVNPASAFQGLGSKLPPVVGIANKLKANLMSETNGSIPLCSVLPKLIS
T38 sequence (Q8NE63 whole entry): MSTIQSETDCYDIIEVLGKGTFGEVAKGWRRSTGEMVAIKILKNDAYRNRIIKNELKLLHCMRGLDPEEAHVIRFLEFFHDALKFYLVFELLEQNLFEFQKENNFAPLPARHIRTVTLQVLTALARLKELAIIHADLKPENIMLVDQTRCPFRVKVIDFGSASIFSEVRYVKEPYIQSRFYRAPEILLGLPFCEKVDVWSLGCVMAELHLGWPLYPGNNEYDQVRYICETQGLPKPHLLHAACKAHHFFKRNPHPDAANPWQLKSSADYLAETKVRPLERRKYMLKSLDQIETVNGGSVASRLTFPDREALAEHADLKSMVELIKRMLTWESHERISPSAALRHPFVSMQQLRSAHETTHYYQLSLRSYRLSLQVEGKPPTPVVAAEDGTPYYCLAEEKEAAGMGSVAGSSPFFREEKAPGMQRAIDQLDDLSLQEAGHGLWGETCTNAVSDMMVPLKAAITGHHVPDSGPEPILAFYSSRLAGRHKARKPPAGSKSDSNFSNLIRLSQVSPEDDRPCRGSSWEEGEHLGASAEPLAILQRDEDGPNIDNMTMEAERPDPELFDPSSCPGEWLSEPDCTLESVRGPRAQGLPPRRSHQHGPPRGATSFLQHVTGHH
T4 sequence (P57059 whole entry): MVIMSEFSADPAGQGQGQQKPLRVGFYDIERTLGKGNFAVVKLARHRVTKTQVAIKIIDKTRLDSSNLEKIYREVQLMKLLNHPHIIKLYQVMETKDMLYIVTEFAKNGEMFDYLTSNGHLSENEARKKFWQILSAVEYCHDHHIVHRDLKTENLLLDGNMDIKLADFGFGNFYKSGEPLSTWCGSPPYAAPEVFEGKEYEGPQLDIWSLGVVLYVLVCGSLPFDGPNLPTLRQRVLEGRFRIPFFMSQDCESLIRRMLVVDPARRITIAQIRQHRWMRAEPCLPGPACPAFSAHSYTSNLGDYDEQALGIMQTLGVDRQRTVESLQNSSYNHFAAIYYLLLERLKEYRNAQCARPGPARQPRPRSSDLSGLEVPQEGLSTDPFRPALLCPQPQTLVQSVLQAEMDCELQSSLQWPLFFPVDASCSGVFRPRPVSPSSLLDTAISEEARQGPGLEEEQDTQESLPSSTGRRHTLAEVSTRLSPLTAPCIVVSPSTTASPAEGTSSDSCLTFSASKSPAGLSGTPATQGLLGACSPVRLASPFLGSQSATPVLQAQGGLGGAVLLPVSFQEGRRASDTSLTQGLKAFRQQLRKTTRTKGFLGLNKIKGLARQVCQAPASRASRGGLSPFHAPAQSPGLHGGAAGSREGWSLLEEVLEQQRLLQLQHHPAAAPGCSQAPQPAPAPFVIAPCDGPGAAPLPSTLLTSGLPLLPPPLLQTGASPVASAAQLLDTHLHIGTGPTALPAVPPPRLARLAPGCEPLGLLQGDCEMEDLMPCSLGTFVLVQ

Cc1cc(/C=C/C#N)cc(C)c1Nc1ccnc(Nc2ccc(C#N)cc2)n1 [rilpivirine, (E)-4-((4-((4-(2-cyanoethenyl)-2,6-dimethylphenyl)amino)pyrimidin-2-yl)amino)benzonitrile]
remaining activity at 1 µM [1]: 25% | remaining activity at 1 µM [2]: 99% | remaining activity at 1 µM [3]: 90% | remaining activity at 1 µM [4]: 66% | remaining activity at 1 µM [5]: 84% | remaining activity at 1 µM [6]: 85% | remaining activity at 1 µM [7]: 89% | remaining activity at 1 µM [8]: 115% | remaining activity at 1 µM [9]: 111% | remaining activity at 1 µM [10]: 100% | remaining activity at 1 µM [11]: 87% | remaining activity at 1 µM [12]: 79% | remaining activity at 1 µM [13]: 86% | remaining activity at 1 µM [14]: 91% | remaining activity at 1 µM [15]: 100% | remaining activity at 1 µM [16]: 97% | remaining activity at 1 µM [17]: 88% | remaining activity at 1 µM [18]: 93% | remaining activity at 1 µM [19]: 94% | remaining activity at 1 µM [20]: 69% | remaining activity at 1 µM [21]: 95% | remaining activity at 1 µM [22]: 86% | remaining activity at 1 µM [23]: 49% | remaining activity at 1 µM [24]: 55% | remaining activity at 1 µM [25]: 97% | remaining activity at 1 µM [26]: 98% | remaining activity at 1 µM [27]: 95% | remaining activity at 1 µM [28]: 54% | remaining activity at 1 µM [29]: 90% | remaining activity at 1 µM [30]: 97% | remaining activity at 1 µM [31]: 89% | remaining activity at 1 µM [32]: 93% | remaining activity at 1 µM [33]: 80% | remaining activity at 1 µM [34]: 99% | remaining activity at 1 µM [35]: 95% | remaining activity at 1 µM [36]: 34% | remaining activity at 1 µM [37]: 86% | remaining activity at 1 µM [38]: 87% | remaining activity at 1 µM [39]: 101%

From publication PMC9954146, “Anti-Leukaemic Activity of Rilpivirine Is Mediated by Aurora A Kinase Inhibition” (Cancers, 2023)
